Consider twelve compounds from PubChem BioAssay (NCI).

Structures are written as SMILES. Several values for one entry are separate records, joined by “and”; a condition that tells them apart may be missing. Equal entries are not always repeated.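 How tested: cells in 96-well plates exposed to compound for 48 hours at five concentrations. GI50: concentration for 50% inhibition of growth. TGI: total growth inhibition.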

Test in all cases: growth of human tumour cells (NCI), 48 h
Test [1] deals with SW-620 colon.
For test [2], the system named is IGROV1 ovarian.
The subject of test [3] is NCI-H226 lung.
Test [4] deals with MOLT-4 leukemia.
For test [5], the system named is SF-295 CNS.
For test [6], the system named is CCRF-CEM leukemia.
Test [7] deals with HOP-62 NSCLC.
In test [8] the test system is UO-31 renal.
Test [9] concerns SF-268 CNS.
In test [10] the test system is SK-MEL-28 melanoma.
In test [11] the test system is NCI/ADR-RES ovarian.
Test [12] concerns PC-3 prostate.

For `COC1C=COC2(C)Oc3c(C)c(O)c4c(O)c(c(/C=N/N5CCN(N)CC5)c(O)c4c3C2=O)NC(=O)C(C)=CC=CC(C)C(O)C(C)C(O)C(C)C(OC(C)=O)C1C` (stereo not drawn), the TGI in [1] is greater than 100 µM; in test [2], greater than 100 µM; in test [3] it was greater than 100 µM; in test [4], greater than 100 µM; in test [5] it was greater than 100 µM; in [6], 47.9 µM. The TGI in test [7], in [8], in test [9] and in test [10] was greater than 100 µM throughout.
`Oc1ccc(N=C2CCC(=C(c3ccccc3)c3ccc(Nc4ccc(O)cc4)cc3)CC2)cc1`: the TGI in test [1], in [3], in test [11], in test [4], in test [5] and in test [6] was greater than 100 µM in each case. Moreover, the TGI in test [12], in [8], in test [9] and in [10] was greater than 100 µM throughout.
Turning to `CCOC(=O)c1cnc2n(c1=N)[C@H]1CCCC[C@@H]1N2`, the TGI in test [1], in test [2], in test [3], in test [11], in [4] and in test [5] was greater than 100 µM in each case. Also, the TGI in [12], in test [8], in test [9] and in test [10] was greater than 100 µM throughout.
As to `O=C(c1ccccc1)c1ccc(-n2c3ccccc3c3ccc4c(c32)C(=O)C=CC4=O)cc1`, the TGI in [1] was 30.1 µM; in test [2], 37.5 µM; in test [3], 53.8 µM; in test [11], 60.5 µM; in test [4] it was greater than 35.4 µM; in test [5] it was 32.4 µM. The TGI in test [7] was found to be 33.6 µM; in test [12], 25.8 µM; in [8], 7.78 µM; in [9], 26.3 µM; in test [10], 30.1 µM.
With `CC1CCC2(C(=O)O)CCC3(C)C(=CCC4C5(C)CCC(O)C(C)(C)C5CCC43C)C2C1C` (stereo not drawn), the GI50 is 5.07 µM and 46.9 µM in test [1]; 3.66 µM and 12.1 µM in test [4]; 3.59 µM and 16.6 µM in test [6]; 1.29 µM and 10.7 µM in test [9]. In addition, the TGI was 16.9 µM and > 100 µM in test [1]; 26.9 µM and 33.2 µM in [2]; 18.7 µM and 37.7 µM in test [3]; 23.7 µM and 40.7 µM in test [11]; 16.7 µM and 37.2 µM in test [4]; 10.2 µM in test [5]. The TGI was 27.9 µM and > 100 µM in [6]; 21.8 µM and 39.1 µM in test [7]; 29.3 µM in test [12]; 16.6 µM and 14.5 µM in [8]; 17.7 µM and 24.6 µM in test [9].
As for `CC(C)(C)OC(=O)NCCc1cccc2c1oc1c(CCC(=O)O)cccc12`, the TGI in test [1], in test [2], in [3], in test [4], in test [5] and in [6] was greater than 100 µM throughout. Further, the TGI in [8], in test [9] and in [10] was greater than 100 µM in each case.
Regarding `CC(NC(=O)c1ccccc1)NC(=O)C(C)C(=O)Nc1ccccc1` (stereo not drawn), the TGI in test [1], in [2], in [3], in test [11], in test [4] and in [5] was greater than 100 µM in each case. The TGI in [6], in [12], in test [8] and in [9] was greater than 100 µM in each case.
For the compound `CC(=O)Nc1cc2c3c(c1)CCCN3CCC2`, the TGI in [1], in test [2], in test [3], in [11], in [4] and in [5] was greater than 100 µM in each case. Moreover, the TGI in test [6], in [12], in test [8] and in [10] was greater than 100 µM throughout.
Consider `O=S(=O)(O)c1ccc(N=Nc2c(O)ccc3cc(Br)ccc23)cc1`, for which the TGI in test [1], in test [2], in test [11], in test [4], in [5] and in test [6] was greater than 100 µM throughout. Further, the TGI in test [7], in [12], in test [8], in test [9] and in [10] was greater than 100 µM each time.
As to `CCc1n[nH]c(=O)n1/N=C/c1ccc(C)cc1`, the TGI in test [1], in test [2], in test [3], in test [11], in [4] and in test [5] was greater than 100 µM in each case. For the same compound, the TGI in [6], in test [7], in test [8], in [9] and in test [10] was greater than 100 µM each time.
With `O=C(O)CCc1ccc2c(c1)C(=O)CC2`, the TGI in [1], in test [2], in [3], in test [11], in [4] and in test [5] was greater than 100 µM throughout. In addition, the TGI in [6], in test [7], in test [8], in test [9] and in [10] was greater than 100 µM throughout.
Take `COC1=CCC=C(C[C@@H]2NCCc3cc(OC)c(OC)cc32)C1`: the TGI in test [1], in [2], in test [3], in [4], in [5] and in [6] was greater than 100 µM throughout. Also, the TGI in [7], in [8], in test [9] and in test [10] was greater than 100 µM in each case.
